Here are results for eleven compounds from patent US4327114A, “Substituted 1,8-dihydroxy-9-(10H)anthracenones” (Boehringer Ingelheim GmbH, priority 1980, dated 1982).

Data set [1] deals with glucose-6-phosphate-dihydrogenase. Put plainly: Inhibition of glucose-6-phosphate-dihydrogenase after 120 minutes incubation. Type of data set: biochemical. The settings on record: 37° C., pH 7.6, REED and MUENCH. As to the method: The inhibiting effect upon enzymes was determined by measurement of the inhibition of glucose-6-phosphate-dihydrogenase.
The following equilibrium was observed: [drawing 5] (NADP-nicotinamide-adenine-dinucleotide-phosphate). The rate of formation of NADPH is a measure of the enzyme activity; it can be measured by means of the increase in extinction at […] per unit of time.
0.025 ml of glucose-6-phosphate-dihydrogenase were diluted to 10 ml with distilled water (Solution I). 100 mg of nicotinamide-adenine-dinucleotide-phosphate were dissolved in 13 ml of distilled water (Solution II). 47.2 mg of glucose-6-phosphate were dissolved in another 10 ml of distilled water (Solution III). Besides this, a buffer solution (Solution IV) was prepared as follows:
0.28 gm of triethanolamine hydrochloride and 1.461 gm of ethylene-diamine tetraacetic acid disodium salt were dissolved in 1 liter of distilled water, and the solution was adjusted to pH 7.6 with sodium hydroxide. The substance to be tested was dissolved in dimethyl formamide or ethanol (Solution V). Tested end-concentrations: 25, 12.5, 6.25, 3.125, 1.56 and 0.78 μg/ml.
A mixture of 0.1 ml of Solution I, 0.1 ml of Solution II, 2.67 ml of Solution IV and 0.03 ml of Solution V was kept at 37° C. for 120 minutes. After addition of 0.1 ml of Solution III and thorough mixing, the change in extinction was measured photometrically at 366 nm over 3 minutes. The inhibition values were calculated from the average values of 3 measurements (as change of extinction per minute), compared to controls to which the pure solvent was added as inhibitor solution. The ED50 was calculated according to the method of REED and MUENCH from the inhibiting values of the different concentrations. The following table contains the values thus determined: […]

A short description of data set [2]: Acute toxicity in the mouse. The settings on record: in vivo, ip, within 14 days. Type of data set: in vivo. As to the method: (§1) The acute toxicity was determined in the mouse and in the rat. Determined was the LD50, i.e. the dose after administration of which 50% of the animals died within 14 days, or it was determined how many of the 10 treated animals died within the period of observation.

The test system of a further data set is mouse. Put plainly: Acute toxicity in the mouse. Type of data set: in vivo. As to the method:
as §1

Data set [3] is described as follows: Acute toxicity in the rat. Conditions: in vivo, ip, within 14 days. Type of data set: in vivo. The method, then:
as §1

For the next data set, the system named is rat. The data set is described as follows: Acute toxicity in the rat. In kind it is in vivo. The settings on record: 2000 mg/kg. As to the method:
as §1

Another data set has as its system skin of guinea pigs. Put plainly: Skin compatibility test on guinea pigs. Type of data set: in vivo, guinea pig (Perbright White strain). The settings on record: for Sum of the reactions divided by the number of animals: score 0 no irritation to 3 very strong erythema; for skin compatibility compared with compound A: Table 3. As to the method: Guinea pigs of the Perbright White strain, with a body weight of about 350 gm, were fed with standard guinea pig feed (Altromin 3022) and water ad lib.
During the test, the animals were kept in single cages. The test substances, which were dissolved in a well compatible solvent, were applied to the skin of the animals (diameter of the test area 3.5 cm) daily for 3 weeks, from Monday to Friday. The animals were shaved each Monday, Wednesday and Friday in the early morning, the treatment with the test substances was performed in the early afternoon. Immediately before administration of the substance, the skin reaction was tested. The evaluation was carried out visually, and erythema, edema, and mycosis of the skin were considered.
The following evaluation was made:
2: strong erythema with beginning edema
3: very strong erythema with edema or beginning necrosis.
The numerical sum of the reactions was used for the total evaluation of a group of animals.

The next data set relates to guinea pigs. The data set is described as follows: Sensitizing activity on guinea pigs. In kind it is in vivo, guinea pig (Perbright White strain). The settings on record: 1:10 to 1:50 of the original concentrations, behind the ears. As to the method: The sensitizing activity was tested 2 weeks after the skin compatibility test with 1:10 to 1:50 of the originally used concentrations behind the ears.

In data set [4] the test system is skin (forearms of volunteer human test subjects). Put plainly: Orienting skin compatibility in humans (ointments on forearm). Conditions: 0.44% ointment, 16 hours, doubled to 0.88% after 3 days if no reaction. Type of data set: in vivo. The method, then:
Ointments, each containing individually 0.44% of compounds […] and K were applied to the forearms of volunteer human test subjects, covered with bandage gauze and allowed to remain on the skin for 16 hours. After 16 hours the ointments were washed off with soap solution, and the skin irritation and discoloration, if any, were evaluated visually and photographed. Then, the test ointments were again administered and allowed to remain on the skin until the next day. Again, the reactions were evaluated and a new treatment was started.

Another data set concerns psoriasis. Conditions: cited from earlier work; for antipsoriatic activity: literature or prior use.
For data set [5], the system named is skin. The settings on record: literature or prior use; cited from earlier work.
Data set [6] relates to skin. Put plainly: Skin compatibility under occlusion, method of Mustakallio. Type of data set: in vivo. Conditions: 4 to 128 mmols in white vaseline, after 4 and after 16 hours of occlusion. As to the method: In a further test, according to the method of Mustakallio, compound A was applied at concentrations of 1, 2, 4, 8, 16, 32 mmols in white vaseline and allowed to remain on the skin for 4 hours under occlusion. Compounds C and K, however, were applied at concentrations of 4, 8, 16, 32, 64, 128 mmols, also in white vaseline, and allowed to remain on the skin for 16 hours under occlusion. […] This means that the novel compounds are more compatible by a factor of at least 64.

The nature of data set [7]: Penetration and metabolization in the skin in vitro. In kind it is in vitro ADME, pig. The settings on record: thin-layer chromatography; for penetration into the layers of the skin: same carriers.
A short description of data set [8]: Natural color of the substance (UV-absorption, FIG. 1). In kind it is physicochemical. Conditions: shortwave portion of visible light, beginning at 380 nm. From the text:
Topically administrable substances which are colored are undesirable for cosmetic reasons and also because the lingerie may become soiled. […] This is also expressed by the optic impression of the preparations. […] This is a further advantage compared with dithranol.

Structures are written as SMILES.

One may read the LD50 as the dose at which mortality reaches 50%. Lower therefore signals a more toxic substance. For the compound `CC(C)c1ccc(O)c2c1Cc1cccc(O)c1C2=O` [Compound F, 1,8-Dihydroxy-4-isopropyl-9-(10H)anthracenone], the “ED50, inhibition of incubation after 120 minutes” value (“ED50, inhibition of incubation” below) in data set [1] stood at 5.35 mg/L. Moreover, the values for the LD50 at 336 h in data set [2] and in data set [3] were 52 mg/kg and 45 mg/kg, respectively. Further, the “Number of dead animals” value is reported as 0/10 in the data set on mouse (p.o., 2000 mg/kg); 0/10 with mouse (sc., 2000 mg/kg); 0/10 in the data set with rat (p.o.); 0/10 in the data set on rat (sc.). The “Sum of the reactions divided by the number of animals” value (shortened to “Sum of the reactions divided”) worked out at 0.085 in the data set with skin of guinea pigs (0.015%, end of 1st week); 0.085 in the data set with skin of guinea pigs (0.015%, end of 2nd week); 0.085 in the data set with skin of guinea pigs (0.015%, end of 3rd week); 0.085 in the data set with skin of guinea pigs (0.045%, end of 1st week); 0.085 in the data set on skin of guinea pigs (0.045%, end of 2nd week); 0.085 in the data set with skin of guinea pigs (0.045%, end of 3rd week). Moreover, the “skin compatibility compared with compound A” value in the data set on skin of guinea pigs is on record as “considerably more skin-compatible than compound A”. Besides, the “sensitization” value in the data set on guinea pigs is “no sensitization”. The “discoloration of the skin” value in data set [4] is listed as “no skin irritation or discoloration of the skin”. Besides, in [4], the skin irritation entry is on record as “no skin irritation”.

On to `CC(=O)Oc1cccc2cc3cccc(OC(C)=O)c3c(OC(C)=O)c12` [dithranol triacetate, 1,8,9-Triacetoxyanthracene], for which the antipsoriatic activity result with psoriasis was “less active than dithranol”. Besides, the therapeutic index result with psoriasis (literature, compared with dithranol) was “a real improvement of the therapeutic index could not be obtained”. The “skin irritation and/or discoloration” value with skin [5] is listed as “less skin irritation”.

Regarding `Cc1cc(O)c2c(c1)Cc1cccc(O)c1C2=O` [Compound B, 1,8-Dihydroxy-3-methyl-9-(10H)-anthracenone, reference compound], the “ED50, inhibition of incubation” value in data set [1] worked out at 6.86 mg/L. Also, in data set [4], the “discoloration of the skin” value is recorded as “skin discoloration similar to compound A”.

As for `CC(C)(C)c1ccc2c(c1O)C(=O)c1c(ccc(C(C)(C)C)c1O)C2` [Compound K, 2,7-Di-tert. butyl-1,8-dihydroxy-9-(10H)anthracenone], in data set [1], the “ED50, inhibition of incubation” value is 7.77 mg/L. The “Number of dead animals” value is on record as 0/10 in the data set on mouse (i.p., 1000 mg/kg); 0/10 in the data set with mouse (p.o., 4000 mg/kg); 0/10 in the data set with mouse (sc., 1000 mg/kg). Moreover, the “Sum of the reactions divided” value in the data set with skin of guinea pigs (0.03%, end of 1st week) was determined as 0.00; with skin of guinea pigs (0.03%, end of 2nd week), 0.042; with skin of guinea pigs (0.03%, end of 3rd week), 0.00. Also, the “skin compatibility compared with compound A” value with skin of guinea pigs was “considerably more skin-compatible than compound A”. Besides, in the data set on guinea pigs, the “sensitization” value was “no sensitization”. Further, in the data set with skin [6], the “skin irritations or discolorations” value was “no skin irritations or discolorations could be observed”. For the same compound, in [7], the “penetration into the layers of the skin” value is “penetrate to an approximately equal extent”. For the same compound, in data set [7], the “metabolization in the skin” value was “metabolized in a similar manner”. In addition, the “UV-absorption / yellow color” value in [8] is given as “significantly less UV-absorption”.

As to `CC(C)c1cc(C(C)C)c2c(c1O)C(=O)c1c(O)cccc1C2` [G, 1,8-Dihydroxy-2,4-diisopropyl-9-(10H)anthracenone], the “ED50, inhibition of incubation” value in [1] turned out to be 5.67 mg/L. In [4], the “discoloration of the skin” value is reported as “no skin irritation or discoloration of the skin” and the skin irritation entry was “no skin irritation”. Also, in data set [7], the “penetration into the layers of the skin” value is given as “penetrate to an approximately equal extent” and the “metabolization in the skin” value is “metabolized in a similar manner”.

For `CC(C)(C)c1ccc2c(c1O)C(=O)c1c(O)cccc1C2` [D, 2-tert. Butyl-1,8-dihydroxy-9-(10H)anthracenone], in data set [1], the “ED50, inhibition of incubation” value was 6.32 mg/L. Also, the “Sum of the reactions divided” value with skin of guinea pigs (0.03%, end of 1st week) came out at 0.083; in the data set with skin of guinea pigs (0.03%, end of 2nd week) it was 0.042; with skin of guinea pigs (0.03%, end of 3rd week), 0.00. Moreover, the “skin compatibility compared with compound A” value in the data set on skin of guinea pigs was “considerably more skin-compatible than compound A”. Also, in the data set on guinea pigs, the “sensitization” value is listed as “no sensitization”. The “discoloration of the skin” value in [4] is on record as “no skin irritation or discoloration of the skin”. The skin irritation entry in data set [4] is on record as “no skin irritation”.

As to `CCCCC(C)c1ccc2c(c1O)C(=O)c1c(O)cccc1C2` (centres unmarked) [E, 2-(2-Hexyl)-1,8-dihydroxy-9-(10H)anthracenone], the “ED50, inhibition of incubation” value in data set [1] amounted to 3.61 mg/L. Besides, in [4], the “discoloration of the skin” value was “no skin irritation or discoloration of the skin” and the skin irritation entry was “no skin irritation”.

As to `CC(=O)C1c2cccc(O)c2C(=O)c2c(O)cccc21` [10-Acetyl-dithranol], the “skin irritation and/or discoloration” value in the data set on skin [5] was “discolored and irritated the skin at concentrations from 0.5% even more than the starting compound”.

For the compound `O=C1c2c(O)cccc2Cc2ccc(C3CCCCC3)c(O)c21` [Compound I, 2-Cyclohexyl-1,8-dihydroxy-9-(10H)anthracenone], in [1], the “ED50, inhibition of incubation” value came to 3.94 mg/L.

Consider `O=CCCC1(CCC=O)c2cccc(O)c2C(=O)c2c(O)cccc21` [bis-(formylethyl)-dithranol], for which the antipsoriatic activity result in the data set with psoriasis is recorded as “did not exhibit any antipsoriatic activity”. The “skin irritation and/or discoloration” value in the data set on skin [5] is “no irritation and discoloration”.

With `O=C1c2c(O)cccc2Cc2c(Cl)ccc(O)c21` [H, 4-Chloro-1,8-dihydroxy-9-(10H)anthracenone], in data set [1], the “ED50, inhibition of incubation” value is 3.85 mg/L.
